Measurements published in ChEMBL document CHEMBL1909046, “DrugMatrix in vitro pharmacology data”.

Columns and labels:
[1] = DRUGMATRIX: Sodium/nucleoside co-transporter radioligand binding (ligand: nitrobenzylthioinosine); type: cell membranes, Cavia porcellus, Dunkin-Hartley, Cerebral cortex, Membrane; conditions: Not Active = under 50% inhibition at 10 µM
[2] = target: Beta-2 adrenergic receptor (Homo sapiens, UniProt P07550); assay: DRUGMATRIX: Adrenergic beta2 radioligand binding (ligand: [3H] CGP-12177); type: cell membranes, CHO, Membrane; conditions: cho; Not Active = under 50% inhibition at 10 µM
[3] = target: Substance-P receptor (Homo sapiens, UniProt P25103); type: cell membranes, Membrane; conditions: cho; also: in other assays of this panel Not Active means under 50% inhibition at 10 µM
[4] = target: T1, Thromboxane-A synthase (Homo sapiens, UniProt P24557); assay: biochemical; type: tissue-based, Platelet; conditions: platelet;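 also: enzyme inhibition assay with PGH2 supplied as substrate; in other assays of this panel Not Active means under 50% inhibition at 10 µM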
T1 sequence (P24557 whole entry): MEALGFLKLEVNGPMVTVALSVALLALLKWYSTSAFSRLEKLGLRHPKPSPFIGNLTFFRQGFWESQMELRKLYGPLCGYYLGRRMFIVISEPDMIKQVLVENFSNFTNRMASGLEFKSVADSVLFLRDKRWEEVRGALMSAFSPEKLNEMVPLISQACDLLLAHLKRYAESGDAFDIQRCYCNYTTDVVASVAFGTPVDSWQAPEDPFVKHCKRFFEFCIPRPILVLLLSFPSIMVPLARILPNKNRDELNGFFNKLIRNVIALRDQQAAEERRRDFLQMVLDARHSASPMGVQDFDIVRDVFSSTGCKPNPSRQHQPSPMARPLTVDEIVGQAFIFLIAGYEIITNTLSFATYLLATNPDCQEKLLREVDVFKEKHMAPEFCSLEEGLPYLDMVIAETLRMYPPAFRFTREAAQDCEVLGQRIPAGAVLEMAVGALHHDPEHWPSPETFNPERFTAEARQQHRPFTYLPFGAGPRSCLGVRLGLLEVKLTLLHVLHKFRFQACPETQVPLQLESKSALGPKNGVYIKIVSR

[5] = target: D(3) dopamine receptor (Homo sapiens, UniProt P35462); assay: DRUGMATRIX: Dopamine D3 radioligand binding (ligand: [3H] Spiperone); type: cell membranes, CHO, Membrane; conditions: cho
[6] = DRUGMATRIX: GABAA, Muscimol, Central radioligand binding (ligand: [3H] Muscimol); type: cell membranes, Rattus norvegicus, Wistar, Brain, Membrane; conditions: Not Active = under 50% inhibition at 10 µM
[7] = target: T2, Neuropeptide Y receptor type 1 (Homo sapiens, UniProt P25929); type: cell membranes, Membrane; conditions: sk-n-mc; also: in other assays of this panel Not Active means under 50% inhibition at 10 µM
T2 sequence (P25929 whole entry): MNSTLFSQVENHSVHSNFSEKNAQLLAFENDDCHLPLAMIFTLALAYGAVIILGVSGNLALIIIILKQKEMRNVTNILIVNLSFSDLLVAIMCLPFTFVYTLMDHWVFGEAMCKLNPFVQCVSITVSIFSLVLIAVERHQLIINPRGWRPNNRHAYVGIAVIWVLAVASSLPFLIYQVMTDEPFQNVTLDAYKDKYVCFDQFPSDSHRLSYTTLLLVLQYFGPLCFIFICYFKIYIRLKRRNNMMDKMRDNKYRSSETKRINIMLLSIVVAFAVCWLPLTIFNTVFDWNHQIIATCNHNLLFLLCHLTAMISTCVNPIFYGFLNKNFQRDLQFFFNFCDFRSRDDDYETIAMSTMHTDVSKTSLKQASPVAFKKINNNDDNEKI

[8] = target: T3, Nitric oxide synthase, inducible (Mus musculus, UniProt P29477); parameters: species or system Escherichia coli;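 also: inhibition of iNOS enzyme activity measured with L-arginine as substrate; in other assays of this panel Not Active means under 50% inhibition at 10 µM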
T3 sequence (P29477 whole entry): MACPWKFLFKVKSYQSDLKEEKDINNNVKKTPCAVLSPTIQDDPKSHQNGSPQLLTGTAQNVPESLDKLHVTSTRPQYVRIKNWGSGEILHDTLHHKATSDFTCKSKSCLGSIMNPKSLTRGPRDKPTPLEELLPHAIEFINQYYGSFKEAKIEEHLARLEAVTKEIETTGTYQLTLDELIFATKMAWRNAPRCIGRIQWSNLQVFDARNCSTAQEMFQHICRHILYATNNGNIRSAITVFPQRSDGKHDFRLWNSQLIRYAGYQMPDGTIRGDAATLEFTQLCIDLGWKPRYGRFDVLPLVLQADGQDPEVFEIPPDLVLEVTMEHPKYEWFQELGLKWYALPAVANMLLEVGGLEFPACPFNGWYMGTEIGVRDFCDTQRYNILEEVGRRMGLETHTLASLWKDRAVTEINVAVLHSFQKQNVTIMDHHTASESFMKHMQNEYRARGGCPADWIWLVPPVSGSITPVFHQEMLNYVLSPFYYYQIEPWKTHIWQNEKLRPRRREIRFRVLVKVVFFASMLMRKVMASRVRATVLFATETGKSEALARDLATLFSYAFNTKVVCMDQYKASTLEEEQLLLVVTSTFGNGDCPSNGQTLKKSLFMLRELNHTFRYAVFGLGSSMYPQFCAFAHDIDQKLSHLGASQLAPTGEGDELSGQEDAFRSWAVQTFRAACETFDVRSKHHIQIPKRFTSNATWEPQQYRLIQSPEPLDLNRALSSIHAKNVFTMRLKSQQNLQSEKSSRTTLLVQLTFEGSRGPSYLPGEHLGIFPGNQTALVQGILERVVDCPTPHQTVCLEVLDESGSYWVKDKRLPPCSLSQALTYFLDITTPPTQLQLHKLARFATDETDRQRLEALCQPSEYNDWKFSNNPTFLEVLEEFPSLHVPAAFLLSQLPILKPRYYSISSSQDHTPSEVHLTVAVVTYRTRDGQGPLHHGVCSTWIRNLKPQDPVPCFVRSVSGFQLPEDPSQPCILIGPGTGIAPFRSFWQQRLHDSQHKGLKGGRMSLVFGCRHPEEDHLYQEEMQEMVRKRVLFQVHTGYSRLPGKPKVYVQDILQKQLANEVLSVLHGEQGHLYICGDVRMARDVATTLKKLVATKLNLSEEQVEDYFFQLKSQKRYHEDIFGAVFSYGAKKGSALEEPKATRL

Sequence of D(3) dopamine receptor (P35462 whole entry): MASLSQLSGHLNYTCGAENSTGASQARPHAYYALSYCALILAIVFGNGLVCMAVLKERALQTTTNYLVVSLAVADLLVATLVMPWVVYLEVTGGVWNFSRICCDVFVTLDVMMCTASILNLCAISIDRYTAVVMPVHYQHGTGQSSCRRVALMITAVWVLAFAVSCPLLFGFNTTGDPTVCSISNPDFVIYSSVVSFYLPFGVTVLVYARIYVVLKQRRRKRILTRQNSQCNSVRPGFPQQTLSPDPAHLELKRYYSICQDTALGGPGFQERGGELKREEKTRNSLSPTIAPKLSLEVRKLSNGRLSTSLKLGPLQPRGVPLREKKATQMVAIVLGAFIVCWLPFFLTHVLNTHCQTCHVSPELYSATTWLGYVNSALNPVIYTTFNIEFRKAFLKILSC
Sequence of Substance-P receptor (P25103 whole entry): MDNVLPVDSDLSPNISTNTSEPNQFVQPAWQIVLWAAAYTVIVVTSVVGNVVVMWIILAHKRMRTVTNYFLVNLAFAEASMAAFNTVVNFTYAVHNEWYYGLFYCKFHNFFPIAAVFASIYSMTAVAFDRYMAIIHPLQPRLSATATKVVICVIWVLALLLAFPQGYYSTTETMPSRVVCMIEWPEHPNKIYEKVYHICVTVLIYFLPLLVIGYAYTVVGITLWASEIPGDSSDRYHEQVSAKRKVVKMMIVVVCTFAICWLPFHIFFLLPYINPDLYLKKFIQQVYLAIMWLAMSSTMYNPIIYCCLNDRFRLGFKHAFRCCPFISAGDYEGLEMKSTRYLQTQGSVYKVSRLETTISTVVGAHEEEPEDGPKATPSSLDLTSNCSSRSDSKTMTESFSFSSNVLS

COBALT(II) ACETYLACETONATE
Not Active: IC50 [1] | Ki [1] | IC50 [2] | Ki [2] | IC50 [3] | Ki [3] | IC50 [4] | Ki [4] | IC50 [5] | Ki [5] | IC50 [6] | Ki [6] | IC50 [7] | Ki [7] | IC50 [8] | Ki [8]

INSULIN HUMAN
Not Active: IC50 [1] | Ki [1] | IC50 [2] | Ki [2] | IC50 [3] | Ki [3] | IC50 [4] | Ki [4] | IC50 [5] | Ki [5] | IC50 [6] | Ki [6] | IC50 [7] | Ki [7] | IC50 [8] | Ki [8]

POLYVINYL ALCOHOL
Not Active: IC50 [1] | Ki [1] | IC50 [2] | Ki [2] | IC50 [3] | Ki [3] | IC50 [4] | Ki [4] | IC50 [5] | Ki [5] | IC50 [6] | Ki [6] | IC50 [7] | Ki [7] | IC50 [8] | Ki [8]
